Reference: patent publication US8329645B2, “Polymyxin derivatives and uses thereof” (priority 2008, dated 2012)

Legend:
[1] = test system: E. coli IH3080; test: Growth inhibition around wells on LB agar plates; type: cell-based, Escherichia coli
Protocol: Peptides synthesized in Example 1, all carrying at least two (2) but not more than three (3) positive charges, were studied for their ability to inhibit the growth of E. coli. This was tested employing LB agar (LB Agar Lennox, Difco, BD, Sparks, Md., U.S.A) plates. The indicator organism E. coli IH3080 (K1:O018) was an encapsulated strain originally isolated from a neonate suffering from meningitis (Vaara et al. 1984) and obtained from National Public Health Institute, Helsinki, Finland.
(§1) From an overnight-grown culture of IH3080 on LB agar, a suspension of approx. 10^8 cells/ml was prepared in 0.9% NaCl. Aliquots of this suspension were then pipetted on the agar plates and the plates were gently shaken to spread the suspension evenly on the entire surface of the plate. Thereafter, the unabsorbed part of the suspension was removed by using a Pasteur pipette. After the surface had dried, small wells (diameter, 2 mm) were drilled on the plates (five wells per plate) by using a sterile sharp-edged narrow metal tube, single-use pipette tip, and vacuum suction. An alternative method used a swab to spread the inoculum. […] Controls included 0.9% NaCl solution without the compound to be tested. The plates were then incubated for 18 h at 37° C. whereafter the diameters of growth inhibition zones around each well were measured; the diameter of the well itself was not reduced. Finally, the diameters were converted to surface areas of growth inhibition (in square mm).

[2] = test system: Acinetobacter baumannii ATCC 19606; test: Growth inhibition around wells on LB agar plates; type: cell-based; conditions: A. baumannii ATCC 19606
Protocol: as §1
(§2) Direct antibacterial activity of sixteen NAB compounds against Acinetobacter baumannii ATCC 19606 and Pseudomonas aeruginosa ATCC 27853 was tested by using the susceptibility determination method described in Example 2. Five compounds (NAB7062, NAB734, NAB737, NAB739, and NAB740) had very notable activity against A. baumannii. […] The antibacterial activity of NAB739 and NAB740 were as strong as or even stronger than that of polymyxin B.

[3] = test system: Pseudomonas aeruginosa ATCC 27853; test: Growth inhibition around wells on LB agar plates; type: cell-based; conditions: Ps. aeruginosa ATCC 27853
Protocol: (§3) From an overnight-grown culture of IH3080 on LB agar, a suspension of approx. 10^8 cells/ml was prepared in 0.9% NaCl. Aliquots of this suspension were then pipetted on the agar plates and the plates were gently shaken to spread the suspension evenly on the entire surface of the plate. Thereafter, the unabsorbed part of the suspension was removed by using a Pasteur pipette. After the surface had dried, small wells (diameter, 2 mm) were drilled on the plates (five wells per plate) by using a sterile sharp-edged narrow metal tube, single-use pipette tip, and vacuum suction. An alternative method used a swab to spread the inoculum. Samples (4 μl and 10 μl) of the peptide solution in 0.9% NaCl (at concentrations of 1 μg/ml and 0.1 μg/ml) were then pipetted to the wells and the sample fluids were allowed to absorb. Controls included 0.9% NaCl solution without the compound to be tested. The plates were then incubated for 18 h at 37° C. whereafter the diameters of growth inhibition zones around each well were measured; the diameter of the well itself was not reduced. Finally, the diameters were converted to surface areas of growth inhibition (in square mm).
as §2

[4] = test system: E. coli IH3080; test: Sensitization to rifampin: growth inhibition around wells on LB plates containing rifampin; type: cell-based, Escherichia coli; conditions: 4 μg of compound
Protocol: as §3

[5] = test system: A. baumannii ATCC 19606; test: as above; type: cell-based, Acinetobacter baumannii; conditions: 4 μg
[6] = test system: Ps. aeruginosa ATCC 27853; test: as above; type: cell-based, Pseudomonas aeruginosa; conditions: 4 μg

Row | Substance | growth inhibition around a well ([1]; 4 μg of compound per well) [square millimeters] | growth inhibition around a well ([1]; 10 μg of compound per well) [square millimeters] | growth inhibition around a well ([2]; 4 μg) [square millimeters] | growth inhibition around a well ([2]; 10 μg) [square millimeters] | growth inhibition around a well ([3]; 4 μg) [square millimeters] | growth inhibition around a well ([3]; 10 μg) [square millimeters] | growth inhibition around a well in the presence of rifampin ([4]; rifampin 0 μg/ml) [square millimeters] | growth inhibition around a well in the presence of rifampin ([4]; rifampin 0.1 μg/ml) [square millimeters] | growth inhibition around a well in the presence of rifampin ([4]; rifampin 1.0 μg/ml) [square millimeters] | growth inhibition around a well in the presence of rifampin ([5]; rifampin 0 μg/ml) [square millimeters] | growth inhibition around a well in the presence of rifampin ([5]; rifampin 0.1 μg/ml) [square millimeters] | growth inhibition around a well in the presence of rifampin ([5]; rifampin 0.3 μg/ml) [square millimeters] | growth inhibition around a well in the presence of rifampin ([6]; rifampin 0 μg/ml) [square millimeters] | growth inhibition around a well in the presence of rifampin ([6]; rifampin 0.1 μg/ml) [square millimeters] | growth inhibition around a well in the presence of rifampin ([6]; rifampin 0.3 μg/ml) [square millimeters]
1 | OA-Thr-Asn-cy[Dab-Dab-DPhe-Leu-Dab-Dab-Thr-] [NAB 746] | 0 | 13 | 0 | 0 | 0 | 20 | 0 | 79 | 95 | 0 | 64 | 95 | 0 | 7 | 0
2 | DA-Thr-Abu-cy[Dab-Dab-DPhe-Leu-Dab-Dab-Thr-] [NAB 7062] |  | 99 | 13 | 38 | 0 | 0 | 50 |  | 104 | 13 | 50 | 95 | 0 | 0 | 7
3 | OA-Thr-DAla-cy[Dab-Dab-DPhe-Thr-Dab-Dab-Thr-] [NAB 738] | 0 | 64 | 0 | 0 | 0 | 0 | 0 | 133 | 177 | 0 | 95 | 154 | 0 |  | 13
4 | OA-Ala-Thr-DSer-cy[Dab-Dab-DPhe-Leu-Dab-Dab-Thr-] [NAB 749] | 113 | 158 | 20 | 38 | 20 | 28 | 133 | 133 | 177 | 20 | 154 | 201 | 20 | 20 | 13
5 | OA-Thr-Dab-cy[Dab-Dab-DPhe-Leu-Abu-Dab-Thr-] [NAB 716] |  | 64 | 0 | 0 | 0 | 0 | 13 | 133 | 165 | 0 | 0 | 64 | 0 | 0 | 0
6 | OA-Thr-Thr-DSer-cy[Dab-Dab-DPhe-Leu-Dab-Dab-Thr-] [NAB 748] | 113 | 156 | 20 | 50 | 20 | 50 | 113 | 154 | 154 | 20 | 133 | 201 | 20 | 13 | 20
7 | Polymyxin B nonapeptide [reference compound] | 0 | 0 | 0 | 0 | 113 | 177 | 0 | 20 | 113 | 0 | 133 | 154 | 113 | 113 | 154
8 | DA-cy[Dab-Dab-DPhe-Leu-Dab-Dab-Thr-] [NAB 736] | 0 | 0 | 0 | 0 | 38 | 79 | 0 | 113 | 133 | 0 | 95 | 154 | 38 | 38 | 38
